The source of these data is patent publication US20210369693A1, “METHODS AND PHARMACEUTICAL COMPOSITIONS FOR THE TREATMENT OF NON-ALCOHOLIC STEATOHEPATITIS” (Eiger Biopharmaceuticals, Inc., priority 2017, published 2021).

The conditions of series [1]: cited from earlier work.
In series [2] the test system is advanced NASH. The note with it: after a year of treatment; cited from earlier work.
The test system of series [3] is animal model of NASH. The series is described as follows: Animal model of NASH (hypothesized). The class given is in vivo. The source says:
Accordingly, in one aspect, methods of treating one or more symptoms of NAFLD and/or NASH, such as hepatocyte ballooning, steatosis, and lobular inflammation, are provided. […] Thus, in some embodiments, administration of pirfenidone as described herein is hypothesized to decrease ballooning and measurably lower plasma and/or liver CK-18 levels in as few as 3 to 12 weeks after treatment initiation. In some embodiments, it is hypothesized that continued daily administration of pirfenidone is efficacious in decreasing inflammation and fibrosis in NASH within 2 to 72 weeks after treatment initiation. In some embodiments, it is hypothesized that treatment with pirfenidone results in an improvement in one or more parameters such as improved ALT enzyme levels, decreased inflammation, decreased steatosis, reduced severity of NASH symptoms, reduced levels of NASH biomarkers such as CK-18, or the slowing, stopping, or reversing of liver fibrosis.

The structures appear in SMILES notation. ≈ marks a conversion by molar mass, not a printed value.

`CC(C)C[C@H](NC(=O)[C@@H](O)[C@H](N)Cc1ccccc1)C(=O)O` [Ubenimex, (2S)-2-[[(2S,3R)-3-amino-2-hydroxy-4-phenylbutanoyl]amino]-4-methylpentanoic acid]: in series [1] (water), the solubility in water is 1270 µg/mL (≈ 4.12 mM).

For `CCCCOCCOc1ccc(-c2ccc3c(c2)/C=C(/C(=O)Nc2ccc([S@@+]([O-])Cc4cncn4CCC)cc2)CCCN3CC(C)C)cc1` [cenicriviroc], the “primary endpoint of improving inflammation and liver damage” value in series [2] is listed as “failed to meet its primary endpoint”.

`Cc1ccc(=O)n(-c2ccccc2)c1` [pirfenidone, 5-methyl-1-phenyl-2-1-(H)-pyridone]: in series [3] (animal model of NASH), the hepatocyte ballooning result was “demonstrates efficacy in slowing and preventing hepatocyte ballooning”; the lobular inflammation result is reported as “reduces”; the steatosis result is “reduces steatosis”. For the same compound, the “plasma CK-18 levels” value in series [3] (relative to control animals) is “decline significantly”. The “relative solubility in solvents” value in series [1] (methanol, ethyl alcohol, acetone, chloroform vs water and 1.0 N HCl) was “more soluble in methanol, ethyl alcohol, acetone and chloroform than in water and 1.0 N HCl”.
